From patent publication US6743895B1, “Bone stimulating factor” (Osteopharm Inc., priority 1995, dated 2004)
Residues, ends and D or L forms follow the SMILES beside them. No end group written: not given here.

Legend:
[1] = test system: rats; assay: Bone mineral apposition rate in intact rats after subcutaneous injection of polypeptide, tetracycline labelling; assay type: in vivo, Sprague-Dawley rats
Description: Experiments were carried out on three groups of six rats weighing between 295 and 320 g. A 1 mg per ml solution of the modified peptide (SEQ ID NO:3) was prepared in 0.1% acetic acid. A 1 mg per ml solution of the normal peptide (SEQ ID NO:1) was prepared in 0.1% acetic acid. Each rat of a first of the groups had subcutaneously injected into its right thigh 0.1 ml of the modified peptide solution. Similarly, each rat of the second group was injected with 0.1 ml of the normal peptide solution. Each rat of the third group, the control group, was injected with 0.1 ml of 0.1% acetic acid solution. Immediately following these injections, each rat was injected intramuscularly with 24 mg per Kg body weight of tetracycline hydrochloride dissolved in 0.5 ml of water. A second dose of tetracycline hydrochloride was administered 48 hours later. The animals were sacrificed 24 hours after the second dose by CO2 narcosis. The lower metaphysis of the right femur was dissected out and fixed in a 10% aqueous solution of formaldehyde buffered at pH 7.2 by acetate buffer. Bone sections were prepared for measurement as described above.
Sprague-Dawley rats were used as test animals to determine bone mineral apposition rate, as described above. Male rats having weights between 280 and 380 g were subject to subcutaneous injection after one week of acclimatization. Each animal was injected with 200 μl of a 0.1% acetic acid test solution, solutions having been prepared at concentrations to obtain a dosage of about 25 nmol of polypeptide per animal. Each test dose was immediately followed by intramuscular injection of 24 mg per Kg of body weight of tetracycline hydrochloride. A second injection of tetracycline was made 48 hours later.
Bone mineral apposition rates were determined by measurements of the lower metaphysis of the right femur, as described previously. Results obtained in the two sets of experiments are summarized in Tables Seven and Eight and graphically depicted in FIGS. 8 and 9.
Bone mineral apposition rates were again determined by measurement of the lower metaphysis of the right femur. Results obtained are summarized in Table Nineteen and graphically depicted in FIG. 12. […]
In a final set of experiments, a polypeptide having the ninth amino acid, cysteine, replaced by the amino acid tyrosine, SEQ ID NO:43, was synthesized and tested for bone stimulatory activity. Four rats (about 300 grams) were each administered with 100 nmoles of material (in 400 μl 20 mM acetic acid solution) by subcutaneous injection along with tetracycline (5 mg per animal in 400 μl water), as described above. A second dosage of tetracycline was administered 48 hours later and the animals sacrificed 24 hours after that. The lower metaphysis of the right femur was examined to determine the bone mineral apposition rate. For comparison, experiments were performed using a control in which no compound was present in the acetic acid solution.

[2] = Stability of dissolved polypeptides (capillary electrophoresis, RP-HPLC); assay type: physicochemical; settings: for Stability relative to SEQ ID NOs: 7 or 24: general summary of stability tests; for Stability when dissolved in dilute acids: 5 mM acetic acid, 1 mg/ml, analyzed weekly by capillary electrophoresis
Description: Each of the polypeptides having the sequences identified as SEQ ID NO: 7 and 24 was dissolved in 5 mM acetic acid to a final concentration of 1 mg/ml and incubated at 37° C. The peptide compositions were analyzed weekly by capillary electrophoresis on a P/ACE 6000 system (Beckman) using 50 mM sodium phosphate pH 2.5 as the running buffer on a 57 cm long×75 μm internal diameter capillary. The incubated peptide (20 μl) was diluted with 80 μl of running buffer, placed in a 500 μl vial prior to injection onto the P/ACE using pressure for 20 seconds. Following electrophoresis of the incubated peptide at 30 kV for 15 min a second run was carried out using freshly dissolved peptide as a control.
Each of the polypeptides was dissolved in 20 mM sodium phosphate pH 3.0, 20 mM ammonium acetate pH 4.0, 20 mM ammonium acetate pH 5.0, 20 mM MES pH 6.0, 20 mM sodium phosphate pH 7.0, 20 mM sodium phosphate pH 7.5, 20 mM sodium phosphate pH 8.0, 20 mM ammonium acetate pH 8.5 or 20 mM ammonium acetate pH 9.5 to a final concentration of 1 mg/ml. The peptide was incubated at 37° C. and the peptide assayed weekly by separation on P/ACE as described above. Some samples were separated by RP-HPLC and the isolated peaks subjected to mass spectroscopic analysis.
The protected polypeptide identified as SEQ ID NO:24 was dissolved in 20 mM or 250 mM ammonium acetate pH 4.5 to a final concentration of 1 mg/ml. In some experiments the buffer was supplemented with 20 mM EDTA. The peptide solution was then incubated at −70° C., −20° C., 4° C. or room temperature (22° C.). Samples were assayed weekly by electrophoresis on the P/ACE as described above and/or by RP-HPLC.
The stability of each of the polypeptides having the amino acid sequences identified as SEQ ID NOs: 25, 26 and 27 was tested as described above.

[3] = test system: ovariectomized rats; assay: Full autopsy after four week administration to ovariectomized rats; assay type: in vivo, Sprague-Dawley rats; settings: 100 μg s.c. every 24 hours for 28 days
Description: The six ovariectomized rats were injected subcutaneously with 100 μl of a 0.1% acetic acid solution containing 100 μg of the chemically synthesized peptide (SEQ ID NO:1) every 24 hours for 28 days. On day 25, a tetracycline hydrochloride solution was injected intramuscularly into each rat so as to give 24 mg per Kg of body weight, as described previously. On day 27, a second dose of tetracycline hydrochloride was injected and the rats were sacrificed on the 28th day.
Post-mortem blood was taken by cardiac puncture and serum frozen until analyzed. A full autopsy was performed on each rat.

[4] = test system: ovariectomized rats; assay: Bone mineral (calcium) content by DEXA in ovariectomized rats; assay type: in vivo, rat; settings: 25 nmoles s.c. each day
Description: Ovariectomies were performed on rats as described above. A 0.1% acetic acid solution containing 25 nmoles of the polypeptide was administered subcutaneously to each rat each day for the duration of the experiment. […] Another group of rats was treated for eight weeks beginning eight weeks after ovariectomization. Rats were sacrificed at the end of the treatment period and dissected and post mortem assessment of bone mineral content was carried out. The lumbar spines L1-L4 were cleaned with a power nylon brush to remove the attached muscle. They were placed ventral side down under 3 cm of distilled water in a polypropylene container and scanned by a dual energy x-ray absorptometer (DEXA). Hologic 100, to determine the calcium content in grams. The right femur of each rat was also dissected out intact and cleared of the attached muscles with a power nylon brush. It was scanned dorsal side down under 3 cm of distilled water by DEXA. Four regions of the femur were scanned, as indicated in FIGS. 10 and 11: A, proximal end; B, diaphysis; C, distal end; and D, neck. The bone mineral (i.e., calcium) content in grams was estimated in the four zones of the femur based on absorption and using an internal standard of the machine.

[5] = about 125 nmoles of polypeptide per Kg of body weight (Table Twenty)
[6] = 20 mM buffers pH 3.0 to 9.5, 1 mg/ml, 37° C.

For “CH3CO-Arg Thr Asn Glu His Thr Ala Glu Cys Lys-NH2 (Ac-RTNEHTAECK-NH2) [SEQ ID NO:25]”, the “Mean Bone Apposition Rate” value ([1]; Table Twenty-One, FIG. 14, N=4) was 1.94 μm/day, the “Stability relative to SEQ ID NOs: 7 or 24” value [2] was “more stable” and the Stability in solution ([2]; pH 2.5-3.0 for 20 days) was “stable”.
With “CH3CO-Arg Thr Gln Glu His Thr Ala Glu Cys Lys-NH2 (Ac-RTQEHTAECK-NH2) [SEQ ID NO:26]” the “Mean Bone Apposition Rate” value ([1]; Table Twenty-One, FIG. 14, N=4) was 2.88 μm/day, the “Mean Bone Apposition Rate” value ([1]; approximately 500 gm male Sprague-Dawley rats, 300 nmol/kg bodyweight (Table Twenty-Two)) was 2.04 μm/day and the “Stability relative to SEQ ID NOs: 7 or 24” value [2] was “more stable”. The Stability in solution ([2]; pH 2.5-3.0, incubated at 37° C.) was “stable”.
In the case of CC[C@H](C)[C@H](NC(=O)CN)C(=O)NCC(=O)N[C@@H](CCCCN)C(=O)N[C@@H](CCCNC(=N)N)C(=O)N[C@H](C(=O)N[C@@H](CC(N)=O)C(=O)N[C@@H](CCC(=O)O)C(=O)N[C@@H](Cc1c[nH]cn1)C(=O)N[C@H](C(=O)N[C@@H](C)C(=O)N[C@@H](CC(=O)O)C(=O)N[C@@H](CS)C(=O)N[C@@H](CCCCN)C(=O)N[C@H](C(=O)N[C@@H](CCCCN)C(=O)N1CCC[C@H]1C(=O)N[C@@H](CC(N)=O)C(=O)N[C@H](C(=O)N[C@@H](CC(C)C)C(=O)N[C@@H](Cc1c[nH]cn1)C(=O)N[C@@H](CCCCN)C(=O)N[C@@H](CCCCN)C(=O)N[C@@H](C)C(=O)N[C@@H](C)C(=O)N[C@@H](CCC(=O)O)C(=O)N[C@H](C(=O)N[C@@H](CC(C)C)C(=O)N[C@@H](CCSC)C(=O)N[C@H](C(=O)N[C@@H](CC(C)C)C(=O)N[C@@H](CC(=O)O)C(=O)N[C@@H](CCC(N)=O)C(=O)N[C@@H](CC(N)=O)C(=O)N[C@@H](CCC(N)=O)C(=O)N1CCC[C@H]1C(=O)O)C(C)C)[C@@H](C)O)[C@@H](C)O)[C@@H](C)CC)[C@@H](C)O)[C@@H](C)O [SEQ ID NO:1] (H-GIGKRTNEHTADCKIKPNTLHKKAAETLMVLDQNQP-OH), the Full autopsy findings [3] is reported as “No ill effects were observed”.
With “SEQ ID NO:24: ten amino acid sequence of SEQ ID NO:9, acetylated at the amino terminus and amidated at the carboxy terminus (Ac-RTNEHTADCK-NH2)” the “Mean Bone Apposition Rate” value ([1]; Table Twenty-One, FIG. 14, N=4) was 2.04 μm/day, the “Mean Bone Apposition Rate” value [1, 5] was 2.72 μm/day and the “Stability when dissolved in dilute acids” value ([2]; 37° C.) was “degraded overtime”. The “pH above which the peptide dimerized” value [2, 6] was over 6.0, the “pH at which the peptide was most stable” value [2, 6] was about 4.5 and the “pH below which the peptide degraded” value [2, 6] was under 4.0. The “Stability as a powder and when dissolved in pH 4.5 buffer” value ([2]; 20 mM or 250 mM ammonium acetate pH 4.5, 1 mg/ml) was “very stable”, the “Dissolved peptide compared with dry peptide stored at −70° C.” value ([2]; ammonium acetate pH 4.5, 1 mg/ml, incubated at 4° C., −20° C. or −70° C., up to 28 days) was “unchanged” and the “Time after which modification of the peptide was observed (RP-HPLC)” value ([2]; ammonium acetate pH 4.5, 1 mg/ml, room temperature (22° C.)) was 7 days.
In the case of “CH3CO-Arg Thr Gln Glu His Thr Ala Asp Cys Lys-NH2 (Ac-RTQEHTADCK-NH2) [SEQ ID NO:27]”, the “Mean Bone Apposition Rate” value ([1]; Table Twenty-One, FIG. 14, N=4) is reported as 1.72 μm/day, the Stability in solution ([2]; all pHs tested, 37° C. for 3 days) is reported as “unstable” and the “Stability relative to SEQ ID NOs: 7 or 24” value [2] is reported as “significantly less stable”.
For GIGKRTNEHTADCKI [SEQ ID NO:7], the “Mean Bone Apposition Rate” value [1, 5] was 2.18 μm/day, the “Bone mineral apposition rate, Mean” value ([1]; male Sprague-Dawley rats 280-380 g, about 25 nmol per animal s.c., first set (Table Seven)) was 1.41 μm per day and the “Bone Mineral Content Measured in Distal End of Femur, Mean” value ([4]; Administered over 56 Days) was 0.1347 g. For the same compound, the “Bone Mineral Content Measured in Femoral Diaphysis, Mean” value ([4]; Administered over 56 Days) was 0.2091 g, the “Bone Mineral Content Measured in Femoral Neck, Mean” value ([4]; Administered over 56 Days) was 0.0274 g and the “Bone Mineral Content Measured in Proximal End of Femur, Mean” value ([4]; Administered over 56 Days) was 0.1328 g. For the same compound, the “Bone Mineral Content Measured in Spine L1-L4, Mean” value ([4]; Administered over 56 Days) was 0.4606 g, the “Bone Mineral Content Measured in Distant End of Femur, Mean” value ([4]; Administered over 100 Days) was 0.1424 g and the “Bone Mineral Content Measured in Femoral Diaphysis, Mean” value ([4]; Administered over 100 Days) was 0.2347 g. For the same compound, the “Bone Mineral Content Measured in Femoral Neck, Mean” value ([4]; Administered over 100 Days) was 0.0351 g, the “Bone Mineral Content Measured in Proximal End of Femur, Mean” value ([4]; Administered over 100 Days) was 0.1411 g and the “Bone Mineral Content Measured in Spine L1-L4, Mean” value ([4]; Administered over 100 Days) was 0.4758 g. For the same compound, the “Stability when dissolved in dilute acids” value ([2]; 37° C.) was “degraded overtime” and the “pH at which the peptide was most stable” value [2, 6] was 4.5.
